Measurements published in patent publication US20080206761A1, “Ex Vivo Gene Expression in Whole Blood as a Model of Assessment of Individual Variation to Dietary Supplements” (priority 2005, published 2008).

Tests used:
Type in all cases: cell-based, human
[1] = test system: TNF-α mRNA; assay: PHA-induced TNF-α mRNA expression in heparinized whole blood ex vivo; conditions: for ΔΔCt (mean ± standard deviation, n = 3), TNFα mRNA: supplement 30 min, then 100 μg/mL PHA 2 h, concentrations per footnote; for effect on PHA-induced TNF-α expression, in words: summary over 7 subjects of Table I
Description: (§1) In this embodiment, phytohemagglutinin-induced gene expression of interleukin-2 (IL-2), interleukin-4 (IL-4), and tumor necrosis factor-α (TNF-α) were quantitated in the following manner. Fifty μL of heparinized whole blood was incubated with various dietary supplements for a period of 30 minutes. The following supplements were employed: vitamins A, C, and D, epigallocatechin gallate (from green tea), genistein (from soy), and curcumin (from the spice turmeric). Vitamin A is known to stimulate the immune system. […] Vitamin D appears to have protective effects against certain cancers. Epigallocatechin gallate is a powerful antioxidant, appears to reduce the multidrug resistance found in cancer cells, and preferentially induces apoptosis in neoplastic cells. Genistein has been found in some studies to have anticarcinogenic activity; possible mechanisms of action include upregulation of apoptosis, inhibition of angiogenesis, inhibition of DNA topoisomerase II and inhibition of protein tyrosine kinases. Curcumin has proapoptotic effects in neoplastic cells and interferes with the activity of the transcription factor NF-κB, which is often highly overexpressed in such cells.
(§2) After incubation with the dietary supplement, 100 μg/mL phytohemagglutinin (PHA) was added and incubation was continued for an additional 2 hours at 37° C. The concentration of each dietary supplement (see Table I, note) was slightly higher than reported blood levels. Then mRNA was purified, cDNA was synthesized, and the levels of IL-2, IL-4, and TNF-α were quantitated by TaqMan real time polymerase chain reaction (PCR) (see Holland, et al., “Detection of specific polymerase chain reaction product by utilizing the 5′ to 3′ exonuclease activity of Thermus aquaticus DNA polymerase,” Proc Natl Acad Sci USA 1991; 88: 7276-80), as described below.
(§3) The mRNA and cDNA were prepared from the whole blood that was exposed to the dietary components, as well as the whole blood which remained unexposed. In brief, home-made 96-well filterplates were placed over collection plates, and 150 μl 5 mM Tris, pH 7.4, was applied. Following centrifugation at 120×g for 1 min at 4° C., 50 μl of blood samples were applied to each well and immediately centrifuged at 120×g for 2 min at 4° C., followed by washing of each well with 300 μl PBS once with centrifugation at 2000×g for 5 min at 4° C. Then, 60 μl stock lysis buffer, containing for example 0.5% N-Lauroylsarcosine, 4×SSC, 10 mM Tris HCl, pH 7.4, 1 mM EDTA, 0.1% IGEPAL CA-630, and 1.791 M guanidine thiocyanate, supplemented with 1% 2-mercaptoethanol (Bio Rad, Hercules, Calif., USA), 0.5 mg/ml proteinase K (Pierce, Rockford, Ill., USA), 0.1 mg/ml salmon sperm DNA (5 Prime Eppendorf/Brinkmann, Westbury, N.Y., USA), 0.1 mg/ml E. coli tRNA (Sigma), a cocktail of 10 mM each of the specific reverse primers shown in Table 2, and standard RNA34 oligonucleotides, were applied to the filterplates, followed by incubation at 37° C. for 10 min. The filterplates were then placed over oligo(dT)-immobilized microplates (GenePlate, RNAture), and centrifuged at 2000×g for 5 min at 4° C. Following overnight storage at 4° C., the microplates were washed with 100 μl plain lysis buffer 3 times, followed by 150 μl of wash buffer (0.5 M NaCl, 10 mM Tris, pH 7.4, 1 mM EDTA) 3 times at 4° C. The cDNA was directly synthesized in each well by adding 30 μl of buffer containing 1×RT-buffer, 1.25 mM each of dNTP, 4 units rRNasin, and 80 units of MMLV reverse transcriptase (Promega) (without primers), and incubation at 37° C. for 2 hours. The specific primer-primed cDNA existed in solution, and oligo(dT)-primed cDNA stayed immobilized in the microplate. […]

[2] = test system: IL-2 mRNA; assay: PHA-induced IL-2 mRNA expression in heparinized whole blood ex vivo; conditions: for ΔΔCt (mean ± standard deviation, n = 3), IL-2 mRNA: supplement 30 min, concentrations per footnote; for effect on PHA-induced IL-2 expression, in words: summary over 7 subjects of Table I
Description: as §1, §2, §3

[3] = test system: IL-4 mRNA; assay: PHA-induced IL-4 mRNA expression in heparinized whole blood ex vivo; conditions: for ΔΔCt (mean ± standard deviation, n = 3), IL-4 mRNA: supplement 30 min, then 100 μg/mL PHA 2 h, concentrations per footnote; for effect on PHA-induced IL-4 expression, in words: summary over 7 subjects of Table I
Description: as §1, §2, §3

[4] = test system: CD32A mRNA (IgG Fc receptor); assay: CD32A mRNA level in leukocytes after exposure of whole blood to dietary components (no stimulating agent); conditions: one individual; 3 hours at 37° C.; PBS control
Description: In brief, home-made 96-well filterplates were placed over collection plates, and 150 μl 5 mM Tris, pH 7.4, was applied. Following centrifugation at 120×g for 1 min at 4° C., 50 μl of blood samples were applied to each well and immediately centrifuged at 120×g for 2 min at 4° C., followed by washing of each well with 300 μl PBS once with centrifugation at 2000×g for 5 min at 4° C. […] The filterplates were then placed over oligo(dT)-immobilized microplates (GenePlate, RNAture), and centrifuged at 2000×g for 5 min at 4° C. Following overnight storage at 4° C., the microplates were washed with 100 μl plain lysis buffer 3 times, followed by 150 μl of wash buffer (0.5 M NaCl, 10 mM Tris, pH 7.4, 1 mM EDTA) 3 times at 4° C. […] The specific primer-primed cDNA existed in solution, and oligo(dT)-primed cDNA stayed immobilized in the microplate. […] Each gene was amplified in separate wells. The Ct was determined by analytical software (SDS, ABI).

[5] = Subject 1, then 100 μg/mL PHA 2 h 37° C., negative = increased expression
[6] = Subject 2, then 100 μg/mL PHA 2 h
[7] = Subject 3, then 100 μg/mL PHA 2 h
[8] = Subject 4, then 100 μg/mL PHA 2 h
[9] = Subject 5, then 100 μg/mL PHA 2 h
[10] = Subject 6, then 100 μg/mL PHA 2 h
[11] = Subject 7, then 100 μg/mL PHA 2 h

| SMILES | ΔΔCt (mean ± standard deviation, n = 3), TNFα mRNA ([1]; Subject 1) | ΔΔCt (mean ± standard deviation, n = 3), TNFα mRNA ([1]; Subject 2) | ΔΔCt (mean ± standard deviation, n = 3), TNFα mRNA ([1]; Subject 3) | ΔΔCt (mean ± standard deviation, n = 3), TNFα mRNA ([1]; Subject 4) | ΔΔCt (mean ± standard deviation, n = 3), TNFα mRNA ([1]; Subject 5) | ΔΔCt (mean ± standard deviation, n = 3), TNFα mRNA ([1]; Subject 6) | ΔΔCt (mean ± standard deviation, n = 3), TNFα mRNA ([1]; Subject 7) | ΔΔCt (mean ± standard deviation, n = 3), IL-2 mRNA [2, 5] | ΔΔCt (mean ± standard deviation, n = 3), IL-2 mRNA [2, 6] | ΔΔCt (mean ± standard deviation, n = 3), IL-2 mRNA [2, 7] | ΔΔCt (mean ± standard deviation, n = 3), IL-2 mRNA [2, 8] | ΔΔCt (mean ± standard deviation, n = 3), IL-2 mRNA [2, 9] | ΔΔCt (mean ± standard deviation, n = 3), IL-2 mRNA [2, 10] | ΔΔCt (mean ± standard deviation, n = 3), IL-2 mRNA [2, 11] | ΔΔCt (mean ± standard deviation, n = 3), IL-4 mRNA ([3]; Subject 1) | ΔΔCt (mean ± standard deviation, n = 3), IL-4 mRNA ([3]; Subject 2) | ΔΔCt (mean ± standard deviation, n = 3), IL-4 mRNA ([3]; Subject 3) | ΔΔCt (mean ± standard deviation, n = 3), IL-4 mRNA ([3]; Subject 4) | ΔΔCt (mean ± standard deviation, n = 3), IL-4 mRNA ([3]; Subject 5) | ΔΔCt (mean ± standard deviation, n = 3), IL-4 mRNA ([3]; Subject 6) | also measured |
| --- | --- | --- | --- | --- | --- | --- | --- | --- | --- | --- | --- | --- | --- | --- | --- | --- | --- | --- | --- | --- | --- |
| COc1cc(/C=C/C(=O)CC(=O)/C=C/c2ccc(O)c(OC)c2)ccc1O [Cur., curcumin] | 3.52 ± 1.84 | 3.64 ± 2.26 | 0.83 ± 0.60 | 0.45 ± 0.15 | 0.13 ± 0.17 | 0.07 ± 0.01 | 0.12 ± 0.21 | 1.47 ± 0.59 | 2.51 ± 0.23 | 0.31 ± 0.14 | 0.33 ± 0.27 | 0.03 ± 0.20 | 0.01 ± 0.14 | −0.01 ± 0.21 | 1.27 ± 0.78 | 3.09 ± 0.15 | −0.01 ± 0.07 | 0.10 ± 0.27 | 0.00 ± 0.20 | 0.10 ± 0.13 | effect on PHA-induced TNF-α expression, in words [1]: significantly decreased IL-2, IL-4, and TNF-α expression in 2 cases; effect on PHA-induced IL-2 expression, in words [2]: significantly decreased IL-2, IL-4, and TNF-α expression in 2 cases; ΔΔCt (mean ± standard deviation, n = 3), IL-4 mRNA ([3]; Subject 7): 0.52 ± 0.26; effect on PHA-induced IL-4 expression, in words [3]: significantly decreased IL-2, IL-4, and TNF-α expression in 2 cases |
| O=C(O[C@@H]1Cc2c(O)cc(O)cc2O[C@@H]1c1cc(O)c(O)c(O)c1)c1cc(O)c(O)c(O)c1 [EGCG, epigallocatechin gallate] | −1.14 ± 0.32 | −0.63 ± 0.66 | 0.33 ± 0.62 | −0.16 ± 0.12 | −1.22 ± 0.29 | −0.66 ± 0.14 | −0.94 ± 0.46 | −0.1 ± 0.02 | −0.67 ± 0.48 | 1.32 ± 0.54 | 0.81 ± 0.11 | −0.99 ± 0.33 | 1.1 ± 0.14 | −0.41 ± 0.29 | −1.83 ± 0.20 | −1.56 ± 0.46 | −0.82 ± 0.34 | 0.92 ± 0.25 | −1.37 ± 0.3 | −0.9 ± 0.01 | effect on PHA-induced TNF-α expression, in words [1]: showed individual variations; effect on PHA-induced IL-2 expression, in words [2]: 3 out of 7 persons showed decreases, 1 showed an increase, and 3 were unchanged; ΔΔCt (mean ± standard deviation, n = 3), IL-4 mRNA ([3]; Subject 7): −1.47 ± 0.41; effect on PHA-induced IL-4 expression, in words [3]: enhanced PHA-induced IL-4 expression in all 7 cases; conclusion from CD32A mRNA levels (FIG. 2), in words [4]: would be suitable for use in this individual in a diet optimized for anti-cancer activity |
| O=C1O[C@H]([C@@H](O)CO)C(O)=C1O [VC, vitamin C] | −1.82 ± 0.65 | 0.10 ± 1.14 | −0.04 ± 0.27 | 0.09 ± 0.16 | −1.21 ± 0.14 | −0.48 ± 0.04 | −0.40 ± 0.15 | −0.18 ± 0.54 | 0.00 ± 0.60 | 1.04 ± 0.21 | 1.47 ± 0.19 | −0.80 ± 0.13 | 1.02 ± 0.05 | 0.07 ± 0.27 | −2.20 ± 0.72 | −0.86 ± 0.62 | −0.77 ± 0.40 | −0.43 ± 0.17 | −1.22 ± 0.17 | −0.77 ± 0.09 | ΔΔCt (mean ± standard deviation, n = 3), IL-4 mRNA ([3]; Subject 7): −1.30 ± 0.22; effect on PHA-induced IL-4 expression, in words [3]: enhanced IL-4 expression, with 1-3 exceptions |
